{"source": "paper PMC3288161", "about": "(Accounts of Chemical Research, 2011)", "key": {"[1]": {"biological_target": "T1, SCO7701 (C-methyltransferase) (Streptomyces coelicolor, UniProt Q9F1Y5)", "T1 sequence (Q9F1Y5 1-292)": "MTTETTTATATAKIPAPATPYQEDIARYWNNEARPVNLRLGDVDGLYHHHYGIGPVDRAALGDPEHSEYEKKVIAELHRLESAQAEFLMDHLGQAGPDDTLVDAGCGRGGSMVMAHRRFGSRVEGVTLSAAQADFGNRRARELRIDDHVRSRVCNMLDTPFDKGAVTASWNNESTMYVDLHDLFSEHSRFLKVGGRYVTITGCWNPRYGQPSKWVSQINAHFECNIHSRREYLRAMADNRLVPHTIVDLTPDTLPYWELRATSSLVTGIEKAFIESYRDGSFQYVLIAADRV", "test": "incubation with recombinant enzyme, product identification", "assay_type": "biochemical"}, "[2]": {"biological_target": "T2, avermitilol synthase (SAV_76) (Streptomyces avermitilis, UniProt Q82RR7)", "T2 sequence (Q82RR7 1-335)": "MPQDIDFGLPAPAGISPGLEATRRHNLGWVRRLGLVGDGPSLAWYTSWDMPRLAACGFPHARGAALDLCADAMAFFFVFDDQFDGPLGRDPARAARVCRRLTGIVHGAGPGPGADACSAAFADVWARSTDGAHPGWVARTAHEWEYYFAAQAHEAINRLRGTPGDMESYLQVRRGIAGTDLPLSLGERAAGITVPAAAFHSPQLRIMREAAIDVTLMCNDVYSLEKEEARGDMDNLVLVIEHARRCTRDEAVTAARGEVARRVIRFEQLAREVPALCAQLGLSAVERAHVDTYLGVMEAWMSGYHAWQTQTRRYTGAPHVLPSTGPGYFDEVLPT", "test": "incubation with purified recombinant enzyme, product identification", "assay_type": "biochemical", "settings": "main product avermitilol"}, "[3]": {"biological_target": "T3, PtlA (SAV_2998), pentalenene synthase (Streptomyces avermitilis, UniProt Q82IY4)", "T3 sequence (Q82IY4 1-336)": "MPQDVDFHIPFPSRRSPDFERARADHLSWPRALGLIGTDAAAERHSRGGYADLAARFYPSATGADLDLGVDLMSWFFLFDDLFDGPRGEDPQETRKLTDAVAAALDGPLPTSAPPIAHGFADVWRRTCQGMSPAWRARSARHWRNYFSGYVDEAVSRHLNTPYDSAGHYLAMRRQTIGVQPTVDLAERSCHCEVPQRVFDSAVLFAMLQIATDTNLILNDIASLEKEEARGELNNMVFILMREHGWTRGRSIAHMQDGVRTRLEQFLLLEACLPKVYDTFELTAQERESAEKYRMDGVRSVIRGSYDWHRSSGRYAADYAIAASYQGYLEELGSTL", "test": "incubation with recombinant enzyme, product identification", "assay_type": "biochemical"}, "[4]": {"biological_target": "T4, epi-isozizaene synthase (SCO5222) (Streptomyces coelicolor, UniProt Q9K499)", "T4 sequence (Q9K499 1-361)": "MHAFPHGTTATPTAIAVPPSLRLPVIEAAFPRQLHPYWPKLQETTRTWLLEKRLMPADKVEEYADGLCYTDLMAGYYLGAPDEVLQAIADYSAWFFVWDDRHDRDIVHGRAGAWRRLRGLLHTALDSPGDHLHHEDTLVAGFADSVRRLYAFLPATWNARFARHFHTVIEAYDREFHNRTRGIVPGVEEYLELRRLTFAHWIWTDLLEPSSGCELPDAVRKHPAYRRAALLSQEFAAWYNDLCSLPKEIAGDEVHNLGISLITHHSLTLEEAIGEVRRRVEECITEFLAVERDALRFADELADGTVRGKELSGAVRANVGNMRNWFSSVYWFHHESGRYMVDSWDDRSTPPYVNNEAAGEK", "test": "incubation with recombinant enzyme, product identification", "assay_type": "biochemical"}, "PtlI (SAV_2999)": {"biological_target": "PtlI (SAV_2999) (Streptomyces avermitilis, UniProt Q82IY3)", "settings": "oxidation to pentalenal"}}}
{"smiles": "C[S+](CC[C@H](N)C(=O)O)C[C@H]1O[C@@H](n2cnc3c(N)ncnc32)[C@H](O)[C@@H]1O", "note": "(stereo partly drawn) [S-adenosyl-L-methionine]", "values": [{"measurement": "incubation with recombinant enzyme, product identification", "setting": "[1]; co-substrate GPP, methyl donor", "value": "Incubation of GPP and SAM with recombinant SCO7701 gave exclusively"}]}
{"smiles": "CC(C)=CCC/C(C)=C/COP(=O)(O)OP(=O)(O)O", "note": "[compound 3, geranyl diphosphate]", "values": [{"measurement": "incubation with recombinant enzyme, product identification", "setting": "[1]; co-substrate SAM, product 2-MeGPP", "value": "Incubation of GPP and SAM with recombinant SCO7701 gave exclusively"}]}
{"smiles": "CC(C)=CCC/C(C)=C/CC/C(C)=C/COP(=O)(O)OP(=O)(O)O", "note": "[compound 4, farnesyl diphosphate]", "values": [{"measurement": "incubation with purified recombinant enzyme, product identification", "setting": "[2]", "value": "Incubation of the purified recombinant SAV76 protein with FPP gave a mixture"}, {"measurement": "incubation with recombinant enzyme, product identification", "setting": "[3]", "value": "Incubation of recombinant PtlA with FPP gave pentalenene"}, {"measurement": "incubation with recombinant enzyme, product identification", "setting": "[4]", "value": "Incubation of the recombinant protein with FPP gave as the major product"}]}
{"smiles": "CC1=C[C@@H]2CC(C)(C)C[C@@]23[C@H](C)CC[C@@H]13", "note": "[compound 6, pentalenene]", "values": [{"measurement": "expressed enzyme, product identification", "setting": "PtlI (SAV_2999)", "value": "cytochrome P450 catalyzing the 3-step oxidation of pentalenene to pentalenal"}]}
